How the values were obtained:
[1] = pH of suspensions of grain samples in distilled water or PBS; conditions: for pH: 1% (w/w) in distilled water
Protocol: The untreated sample (A) was compared visually against the corresponding quicklime-treated sample (B).
On Day 7, 10 g amounts of each sample were suspended in either 90 ml PBS or 90 ml sterile distilled water and shaken for 10 minutes. The pH of each suspension was then measured and compared.
On Day 9, 10 g of each sample was suspended in 90 ml PBS and shaken for 10 minutes. The pH was measured.

mould = experiment: Mould count of spent brewer's / wet distiller's grains stored at ambient temperature; type: cell-based
In short: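 Wet grain samples were mixed with a powdered treatment agent in a single initial mix, with no later treatment or agitation. Batches and untreated controls were kept under insect-proof screens at ambient temperature. Every seven days, a whole sample from each treatment went to a SANAS-approved microbiological laboratory. Mould counts were determined there following a procedure similar to Rosentrater et al. (2008).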

yeast = experiment: Yeast count of spent brewer's / wet distiller's grains stored at ambient temperature; type: cell-based
[2] = wet distiller's grains, 0.5% CaO (w/w), day 1
[3] = wet distiller's grains, 0.5% CaO (w/w), day 3
[4] = wet distiller's grains, 0.5% CaO (w/w), day 6
[5] = wet distiller's grains, 0.5% CaO (w/w), day 8
[6] = wet distiller's grains, 1.0% CaO (w/w), day 2
[7] = wet distiller's grains, 1.0% CaO (w/w), day 3
[8] = wet distiller's grains, 1.0% CaO (w/w), day 6
[9] = wet distiller's grains, 1.0% CaO (w/w), day 8
[10] = wet distiller's grains, 1.0% CaO (w/w), day 10
[11] = wet distiller's grains, 1.5% CaO (w/w), day 1
[12] = wet distiller's grains, 1.5% CaO (w/w), day 2
[13] = wet distiller's grains, 1.5% CaO (w/w), day 3
[14] = wet distiller's grains, 1.5% CaO (w/w), day 6
[15] = wet distiller's grains, 1.5% CaO (w/w), day 8
[16] = wet distiller's grains, 2.0% CaO (w/w), day 1
[17] = wet distiller's grains, 2.0% CaO (w/w), day 3
[18] = wet distiller's grains, 2.0% CaO (w/w), day 6
[19] = wet distiller's grains, 2.0% CaO (w/w), day 8
[20] = wet distiller's grains, 2.0% CaO (w/w), day 10
[21] = wet distiller's grains, 2.5% CaO (w/w), day 1
[22] = wet distiller's grains, 2.5% CaO (w/w), day 2
[23] = wet distiller's grains, 2.5% CaO (w/w), day 3
[24] = wet distiller's grains, 2.5% CaO (w/w), day 6
[25] = wet distiller's grains, 2.5% CaO (w/w), day 7
[26] = wet distiller's grains, 2.5% CaO (w/w), day 8
[27] = wet distiller's grains, 2.5% CaO (w/w), day 10
[28] = wet distiller's grains, 2.5% CaO (w/w), day 21
[29] = wet distiller's grains, 2.5% CaO (w/w), day 56
[30] = wet distiller's grains, 5.0% CaO (w/w), day 7
[31] = wet distiller's grains, 5.0% CaO (w/w), day 14
[32] = wet distiller's grains, 5.0% CaO (w/w), day 42
[33] = wet distiller's grains, 5.0% CaO (w/w), day 49
[34] = wet distiller's grains, 5.0% CaO (w/w), day 56
[35] = wet distiller's grains, 10.0% CaO (w/w), day 7
[36] = wet distiller's grains, 10.0% CaO (w/w), day 21
[37] = wet distiller's grains, 10.0% CaO (w/w), day 42
[38] = wet distiller's grains, 10.0% CaO (w/w), day 49
[39] = wet distiller's grains, 10.0% CaO (w/w), day 56

[O]=[Ca] [calcium oxide]
pH ([1]; 0.5% CaO (w/w), day 1): 7.97 | pH ([1]; 0.5% CaO (w/w), day 2): 8.06 | pH ([1]; 0.5% CaO (w/w), day 3): 7.63 | pH ([1]; 0.5% CaO (w/w), day 6): 7.38 | pH ([1]; 0.5% CaO (w/w), day 8): 7.80 | pH ([1]; 1.0% CaO (w/w), day 1): 8.86 | pH ([1]; 1.0% CaO (w/w), day 2): 8.82 | pH ([1]; 1.0% CaO (w/w), day 3): 9.19 | pH ([1]; 1.0% CaO (w/w), day 6): 9.21 | pH ([1]; 1.0% CaO (w/w), day 8): 7.89 | pH ([1]; 1.0% CaO (w/w), day 10): 8.27 | pH ([1]; 1.5% CaO (w/w), day 1): 9.10 | pH ([1]; 1.5% CaO (w/w), day 2): 9.15 | pH ([1]; 1.5% CaO (w/w), day 3): 9.95 | pH ([1]; 1.5% CaO (w/w), day 6): 9.84 | pH ([1]; 1.5% CaO (w/w), day 8): 9.10 | pH ([1]; 1.5% CaO (w/w), day 10): 10.84 | pH ([1]; 2.0% CaO (w/w), day 1): 10.68 | pH ([1]; 2.0% CaO (w/w), day 2): 10.10 | pH ([1]; 2.0% CaO (w/w), day 3): 9.48 | pH ([1]; 2.0% CaO (w/w), day 6): 11.22 | pH ([1]; 2.0% CaO (w/w), day 8): 9.76 | pH ([1]; 2.0% CaO (w/w), day 10): 9.97 | pH ([1]; 2.5% CaO (w/w), day 1): 11.48 | pH ([1]; 2.5% CaO (w/w), day 2): 11.08 | pH ([1]; 2.5% CaO (w/w), day 3): 11.41 | pH ([1]; 2.5% CaO (w/w), day 6): 11.55 | pH ([1]; 2.5% CaO (w/w), day 8): 10.29 | pH ([1]; 2.5% CaO (w/w), day 10): 8.87 | pH ([1]; 5% CaO (w/w) powder, week 1): 11.36 | pH ([1]; 5% CaO (w/w) powder, week 2): 11.00 | pH ([1]; 5% CaO (w/w) powder, week 3): 12.20 | pH ([1]; 5% CaO (w/w) powder, week 4): 11.61 | pH ([1]; 5% CaO (w/w) powder, week 5): 11.34 | pH of treated wet distiller's grains ([1]; calcium oxide 0.5% (w/w), Example 14): below 8 | Mould Count (mould; 5% CaO (w/w) powder, week 1): 10 cfu/gram | Mould Count (mould; 5% CaO (w/w) powder, week 2): 10 cfu/gram | Mould Count (mould; 5% CaO (w/w) powder, week 3): 10 cfu/gram | Mould Count (mould; 5% CaO (w/w) powder, week 4): 10 cfu/gram | Mould Count (mould; 5% CaO (w/w) powder, week 5): 10 cfu/gram | Mould Count (mould; [2]): <10 cfu/gram | Mould Count (mould; wet distiller's grains, 0.5% CaO (w/w), day 2): 30 cfu/gram | Mould Count (mould; [3]): 100 cfu/gram | Mould Count (mould; [4]): 37000 cfu/gram | Mould Count (mould; [5]): <10 cfu/gram | Mould Count (mould; wet distiller's grains, 1.0% CaO (w/w), day 1): <10 cfu/gram | Mould Count (mould; [6]): <10 cfu/gram | Mould Count (mould; [7]): <10 cfu/gram | Mould Count (mould; [8]): <10 cfu/gram | Mould Count (mould; [9]): <10 cfu/gram | Mould Count (mould; [10]): 91000 cfu/gram | Mould Count (mould; [11]): <10 cfu/gram | Mould Count (mould; [12]): <10 cfu/gram | Mould Count (mould; [13]): <10 cfu/gram | Mould Count (mould; [14]): <10 cfu/gram | Mould Count (mould; [15]): <10 cfu/gram | Mould Count (mould; wet distiller's grains, 1.5% CaO (w/w), day 10): <110 cfu/gram | Mould Count (mould; [16]): <10 cfu/gram | Mould Count (mould; wet distiller's grains, 2.0% CaO (w/w), day 2): <10 cfu/gram | Mould Count (mould; [17]): <10 cfu/gram | Mould Count (mould; [18]): <10 cfu/gram | Mould Count (mould; [19]): <10 cfu/gram | Mould Count (mould; [20]): <10 cfu/gram | Mould Count (mould; [21]): <10 cfu/gram | Mould Count (mould; [22]): <10 cfu/gram | Mould Count (mould; [23]): <10 cfu/gram | Mould Count (mould; [24]): <10 cfu/gram | Mould Count (mould; [25]): 10 cfu/gram | Mould Count (mould; [26]): <10 cfu/gram | Mould Count (mould; [27]): <10 cfu/gram | Mould Count (mould; wet distiller's grains, 2.5% CaO (w/w), day 14): 14,000 cfu/gram | Mould Count (mould; [28]): 170,000 cfu/gram | Mould Count (mould; wet distiller's grains, 2.5% CaO (w/w), day 42): 850,000 cfu/gram | Mould Count (mould; wet distiller's grains, 2.5% CaO (w/w), day 49): 320,000 cfu/gram | Mould Count (mould; [29]): 1,240,000 cfu/gram | Mould Count (mould; [30]): 10 cfu/gram | Mould Count (mould; [31]): 10 cfu/gram | Mould Count (mould; wet distiller's grains, 5.0% CaO (w/w), day 21): 150 cfu/gram | Mould Count (mould; [32]): 20 cfu/gram | Mould Count (mould; [33]): 90 cfu/gram | Mould Count (mould; [34]): 90 cfu/gram | Mould Count (mould; [35]): 10 cfu/gram | Mould Count (mould; wet distiller's grains, 10.0% CaO (w/w), day 14): 10 cfu/gram | Mould Count (mould; [36]): 10 cfu/gram | Mould Count (mould; [37]): 70 cfu/gram | Mould Count (mould; [38]): 80 cfu/gram | Mould Count (mould; [39]): 16 cfu/gram | Yeast Count (yeast; 5% CaO (w/w) powder, week 1): 10 cfu/gram | Yeast Count (yeast; 5% CaO (w/w) powder, week 2): 10 cfu/gram | Yeast Count (yeast; 5% CaO (w/w) powder, week 3): 113 cfu/gram | Yeast Count (yeast; 5% CaO (w/w) powder, week 5): 10 cfu/gram | Yeast Count (yeast; [2]): <10 cfu/gram | Yeast Count (yeast; [3]): <10 cfu/gram | Yeast Count (yeast; [4]): 40000 cfu/gram | Yeast Count (yeast; [5]): <10 cfu/gram | Yeast Count (yeast; [6]): <10 cfu/gram | Yeast Count (yeast; [7]): <10 cfu/gram | Yeast Count (yeast; [8]): <10 cfu/gram | Yeast Count (yeast; [9]): <10 cfu/gram | Yeast Count (yeast; [10]): 20 cfu/gram | Yeast Count (yeast; [11]): <10 cfu/gram | Yeast Count (yeast; [12]): <10 cfu/gram | Yeast Count (yeast; [13]): <10 cfu/gram | Yeast Count (yeast; [14]): <10 cfu/gram | Yeast Count (yeast; [15]): <10 cfu/gram | Yeast Count (yeast; [16]): <10 cfu/gram | Yeast Count (yeast; [17]): <10 cfu/gram | Yeast Count (yeast; [18]): <10 cfu/gram | Yeast Count (yeast; [19]): <10 cfu/gram | Yeast Count (yeast; [20]): <10 cfu/gram | Yeast Count (yeast; [21]): <10 cfu/gram | Yeast Count (yeast; [22]): <10 cfu/gram | Yeast Count (yeast; [23]): <10 cfu/gram | Yeast Count (yeast; [24]): <10 cfu/gram | Yeast Count (yeast; [25]): 10 cfu/gram | Yeast Count (yeast; [26]): <10 cfu/gram | Yeast Count (yeast; [27]): <10 cfu/gram | Yeast Count (yeast; [28]): 53,000 cfu/gram | Yeast Count (yeast; [29]): 115,000 cfu/gram | Yeast Count (yeast; [30]): 10 cfu/gram | Yeast Count (yeast; [31]): 10 cfu/gram | Yeast Count (yeast; [32]): 10 cfu/gram | Yeast Count (yeast; [33]): 20 cfu/gram | Yeast Count (yeast; [34]): 20 cfu/gram | Yeast Count (yeast; [35]): 10 cfu/gram | Yeast Count (yeast; [36]): 10 cfu/gram | Yeast Count (yeast; [37]): 10 cfu/gram | Yeast Count (yeast; [38]): 10 cfu/gram | Yeast Count (yeast; [39]): 10 cfu/gram

From patent US20120009280A1, “METHOD OF REDUCING THE RATE OF DEGRADATION OF A BIOLOGICAL MATERIAL” (Bio-Energy Ingredients Limited, priority 2009, published 2012)
